Tests used:
U2932 cells = assay: Viability of U2932 cells, combination of PNAs with HDAC inhibitors and other drugs
Description: FIGS. 9A-D show cell viability after treatment with indicated PNAs. (9A) The viability of U2932 cells after treatment with γPNA1-NLS (8 μM), romidepsin (10 nM) and combination of γPNA1-NLS with romidepsin over 96 hours. (9B) The viability of U2932 cells after treatment with γPNA2-NLS (8 μM), romidepsin (10 nM) and combination of γPNA2-NLS with romidepsin over 96 hours. (9C) Fold change in C-Myc levels after combination of γPNA1-NLS and γPNA2-NLS with romidepsin in comparison to only romidepsin treatment. (9D) Fold change in BCL2 levels after combination of γPNA1-NLS and γPNA2-NLS with romidepsin in comparison to only romidepsin treatment.
FIGS. 10A-F show the viability of U2932 cells after indicated treatment. (10A) Viability of U2932 cells after treatment with γPNA2-NLS […], vorinostat (2.5 μM) and combination of γPNA2-NLS with vorinostat over 96 hours. (10B) The viability of U2932 cells after treatment with γPNA2-NLS (8 μM), valproic acid (2 mM) and combination of γPNA2-NLS with valproic acid over 96 hours. […] (10E) The viability of U2932 cells after treatment with CHOP (cyclophosphamide, vincristine, doxorubicin, prednisone) and combination of γPNA2-NLS with CHOP at different doses.
Cell viability: U2932 and Raji cells were seeded in 96 well plates at 20,000 cells/well. PNAs were added to the media at different concentrations (1, 2, 4, and 8 μM). […] The cell viability was then measured via trypan blue staining on day 1, 2, and 4.

C-Myc oncogene [1] = assay: Gene expression (RT-PCR) of C-Myc and downstream targets in Raji cells; format: cell-based, human; conditions: 24 h, 8 μM
Description: (§1) FIGS. 4A-F show effect of cellular uptake of indicated PNAs. (4A) Expression levels of C-Myc oncogene in U2932 (DLBCL), Raji and Daudi cells (Burkitt's lymphoma) in comparison to the peripheral blood mononuclear cells (PBMC). (4B) Cell viability of U2932 cells after 24 h treatment with indicated PNAs at different doses. (4C) Cell viability of Raji cells after 24 h treatment with indicated PNAs at different doses. (4D) Gene expression levels of C-Myc oncogene and its downstream targets including MCL1 and EZH2 in U2932 cells after 24 h of treatment with γPNA1-NLS, γPNA2-NLS, and ScrγPNA4-NLS at 8 μM. (4E) Gene expression levels of C-Myc oncogene and its downstream targets including BCL2 and EZH2 in Raji cells after 24 h of treatment with γPNA1-NLS, γPNA2-NLS, and ScrγPNA4-NLS at 8 μM. (4F) Gene expression levels of C-Myc in U2932 cells after 24 h treatment with γPNA2-NLS and ScrγPNA4-NLS at indicated doses.
(§2) Gene expression: The levels of mRNA were measured in different cell lines using real time-polymerase chain reaction (RT-PCR). Both untreated (PBMC, U2932, Raji, Daudi) and PNA treated lymphoma cells were collected at the end of treatment. Total RNA was extracted using Qiagen RNeasy® kit (USA) and concentration was measured by Nanodrop™. cDNA was synthesized using high capacity cDNA reverse transcription kit (Applied Biosystem, USA) following the recommended cycling conditions. Taqman® gene expression assay for C-Myc, EZH2, BCL2, MCL1 and GAPDH were used to amplify the respective mRNAs using the specified cycling conditions in the CFX Real-Time PCR detection system. GAPDH was used as the reference gene and fold change in mRNA expression was obtained by normalizing against the untreated cells or cells treated with HDAC inhibitors.

C-Myc oncogene [2] = assay: Gene expression (RT-PCR) in U2932 cells after combination treatment; format: cell-based, human
Description: as §2

C-Myc oncogene [3] = assay: Gene expression (RT-PCR) of C-Myc and downstream targets in U2932 cells; format: cell-based, human; conditions: RT-PCR, 24 h, 8 μM
Description: as §1, §2

U2932 derived xenografts = assay: Tumor growth and survival study in U2932 derived xenograft mice; format: in vivo; conditions: 5 mg/kg systemic on day 1, 4, 7, and 10
Description: FIGS. 7A-C show survival data of mice after systemic administration of indicated PNAs. (7A) Graph representing the tumor volume of U2932 xenografts after systemic treatment with indicated PNAs (n≥4 mice per group). PNAs were administered systemically on day 1, 4, 7, and 10 (n≥4 mice per group). (7B) The survival of U2932 derived xenograft mice after treatment with γPNA2-NLS, γPNA3, and ScrγPNA4-NLS at 5 mg/kg dose in comparison to the control (saline) mice. (7C) Complete blood count analysis of mice from different groups at the end of the study. RBC: red blood cells; WBC: white blood cells; HGB: hemoglobin; PLT: platelets; HCT: hematocrit; MCH: […]. (D) Blood chemistry analysis of mice from different groups at the end of the study. ALT: alanine transaminase; AST: aspartate transaminase; BUN: blood urea nitrogen; LDH: Lactate dehydrogenase. Results are presented as mean±SEM (n≥4).
In vivo studies in xenograft mice model: U2932 derived xenografts were generated by implanting 10 million cells subcutaneously on the lower right flank of the female NSG mice (NOD.Cg-Prkdc^scidIl2rg^tm1Wj1/SzJ, #005557, Jackson Laboratories, USA) of 5-6 weeks. The mice were maintained in the animal care facility at the University of Connecticut following the required Institutional Animal Care and Use Committee guidelines (IACUC). Mice developed palpable tumors after 3-4 weeks of implantation. Tumor dimensions including length (l), breadth (b), and height (h) were measured using a caliper and volume was calculated using the formula for ellipsoid (0.5236×lbh).
Survival study: Mice bearing tumors about 100-150 mm^3 were divided into 4 groups. Mice were treated with either γPNA2-NLS, γPNA3, Scr-γPNA4-NLS, or saline. PNAs were administered at 5 mg/kg dose on day 1, 4, 7, and 10. The change in tumor volume was measured every day. Mice were euthanized when the tumor volume reached 2000 mm^3. Blood was collected via cardiac punter in 1.5 ml tubes containing 0.5 M EDTA. Organs including tumor, liver, kidney, spleen, heart and lung were collected. Tumor fraction and all organs were kept in 10% formalin and submitted for histology. The complete blood count analysis was performed on the collected blood samples using Sysmex CBC analyzer. Plasma was separated from the blood samples and submitted to Antech diagnostic for blood chemistry analysis to quantify the levels of alanine transaminase, lactate dehydrogenase, aspartate transaminase and blood urea nitrogen.

C/C=C1\NC(=O)[C@H]2CSSCC/C=C/[C@H](CC(=O)N[C@H](C(C)C)C(=O)N2)OC(=O)[C@H](C(C)C)NC1=O [Romidepsin, reference compound]
cytotoxicity at 0.01 µM (U2932 cells; Homo sapiens, U2932, 96 h, read-out: decrease in viability, alone): 60%

JJJJTTJJ-OOO-CCTTCCCCACCCTCCCCACCCTC-K-OOO-VKRKKKP (gamma PNA tail clamp; linkers; NLS peptide; misc_feature 1 JJJJTTJJ-linker- is covalently linked to the backbone, wherein J is pseudoisocytosine and the linker is 11-Amino-3,6,9-Trioxaundecanoic Acid (DCHA), represented as -OOO-; misc_feature 23 -K-linker-SEQ ID NO: 5 is covalently linked to the backbone, wherein the linker is 11-Amino-3,6,9-Trioxaundecanoic Acid (DCHA), represented as -OOO-; modified_base 1..23 OTHER; peptide nucleic acid) [γPNA1-NLS]
change in levels of C-Myc (in words) (C-Myc oncogene [1]): did not observe any change in levels of C-Myc | levels of downstream targets BCL2 and EZH2 (C-Myc oncogene [1]): no change in their levels | BCL-2 levels, combination with romidepsin in comparison to only romidepsin (C-Myc oncogene [2]; day 4): reduced levels | decrease in C-Myc levels, combination with romidepsin compared with only romidepsin (C-Myc oncogene [2]; day 4, PNA 8 uM, romidepsin 10 nM): approximately 50% | change in levels of C-Myc (in words) (C-Myc oncogene [3]): did not observe any change in levels of C-Myc | levels of downstream targets MCL1 and EZH2 (C-Myc oncogene [3]): no change in their levels | combination effect with romidepsin on viability (in words) (U2932 cells; U2932 cells, romidepsin 10 nM, PNA 8 uM): synergistic activity | decrease in U2932 cell viability, combination with romidepsin (U2932 cells; romidepsin 10 nM pretreatment 24 h, PNA 8 uM, day 4): approximately 80%

X3TCCCTCCCTCCGTTCTTTTTCCCX4 (JJJTJJJT linker N-term; C-terminal lysine; gammaPNA; misc_feature 1 JJJTJJJT-linker- is covalently linked to the backbone, wherein J is pseudoisocytosine and the linker is 11-Amino-3,6,9-Trioxaundecanoic Acid (DCHA), represented as -OOO-; misc_feature 23 K is covalently linked to the backbone; modified_base 1..23 OTHER; peptide nucleic acid) [γPNA3, site 2 gamma tail clamp PNA without NLS]
tumor growth in comparison to the control groups (U2932 derived xenografts): significantly reduced tumor growth | survival of the mice (U2932 derived xenografts; saline 21 days): 23 days

From US20260125428A1, “SYNTHETIC TRIPLEX PEPTIDE NUCLEIC ACID-BASED INHIBITORS FOR CANCER THERAPY” (University of Connecticut, priority 2022, published 2026)
